Experimental data published in patent US20170304396A1, “AQUEOUS SOLUTION FORMULATIONS OF VANCOMYCIN” (priority 2015, published 2017).
Converted amounts (≈) assume the structure as drawn. Where a name gives a salt, the structure may show the parent alone.

Tests used:
Solubility in water = type: physicochemical; conditions: for solubility: water
S. aureus ATCC 25923 = assay: Minimum Inhibitory Concentration (CLSI); type: cell-based; conditions: Example 11
Excerpt: (§1) Standards for this method are outlined by the Clinical and Laboratory Standards Institute (CLSI). The table below describes the vancomycin solution composition used to test antibiotic potency:
(§2) Standards for this method are outlined by the Clinical and Laboratory Standards Institute (CLSI).

E. faecalis ATCC 29212 = assay: Minimum Inhibitory Concentration (CLSI); type: cell-based; conditions: Example 11
Excerpt: as §1, §2

[1] = type: physicochemical
Description: The aim of this study was to compare effects of various ingredients on vancomycin stability in a solution in order to identify a stabilizer that can slow the degradation of vancomycin in solution. Each solution sample (coded with an F-#) was prepared by dissolving vancomycin HCl to 1% concentration, along with stabilizer added at the concentrations listed in the Table below. Each solution was adjusted to about pH 4.7 and stored at 2-8° C. and 50° C. for 2 days. The stability of vancomycin was indicated by vancomycin recovery (% over the initial concentration) after storage at a selected temperature. The concentration of vancomycin or vancomycin assay was measured using HPLC method (USP Vancomycin Assay method). The relative stability of vancomycin in each solution was expressed in vancomycin concentration or assay recovery (% over the initial concentration).
The aim of this study was to compare various amino acids, including tryptophan, on their effects on vancomycin stability in an aqueous solution. The solution samples were prepared and tested similarly to Example 2.
The solution samples were prepared and tested in a similar way as in Example 2. The test sample compositions and test results are shown in the Table below and the effects of tryptophan concentration on vancomycin stability are depicted graphically in FIG. 4.

physchem = assay: physchem
Excerpt: As used herein, “molecular complex” means a special interaction between two molecules that are not covalently bonded. […] One of the methods to detect molecular complex formation is the phase solubility diagram which measures changes in solubility of one molecule (“substrate”) as a function of the other molecule (“complexing agent”) (T. Higuchi and J. L. Lach, J. Am. Pharm. Assoc., Sci. Ed. 43, 349, 525, 527, 1954).
In addition, this study intended to determine the stoichiometric ratio of such molecular complex formed. To obtain a phase solubility diagram of tryptophan, pre-calculated amounts of tryptophan, vancomycin and water were added into a plastic tube to form a suspension in which vancomycin was completed dissolved but tryptophan was not completed dissolved, the suspension was adjusted to pH 6.2, mixed at room temperature (RT) overnight to reach dissolution/re-crystallization equilibrium, and then filtered through a 0.2-micorn filter membrane. The filtrate was diluted and analyzed by HPLC (using the USP HPLC vancomycin assay method) to determine the concentrations of tryptophan and vancomycin. The solubility of tryptophan measured and the concentration of vancomycin added measured in each suspension sample are provided in the Table below: […]

[2] = Merck Index (12th edition); cited from earlier work

Structure (SMILES): CN[C@H](CC(C)C)C(=O)N[C@H]1C(=O)N[C@@H](CC(N)=O)C(=O)N[C@H]2C(=O)N[C@H]3C(=O)N[C@H](C(=O)N[C@H](C(=O)O)c4cc(O)cc(O)c4-c4cc3ccc4O)[C@H](O)c3ccc(c(Cl)c3)Oc3cc2cc(c3O[C@@H]2O[C@H](CO)[C@@H](O)[C@H](O)[C@H]2O[C@H]2C[C@](C)(N)[C@H](O)[C@H](C)O2)Oc2ccc(cc2Cl)[C@H]1O [vancomycin]
- vancomycin solubility limit in water (Solubility in water): about 12 % w/v
- solubility (Solubility in water; read-out: vancomycin solubility limit in water): ~120 mg/mL (≈ 82.8 mM)

Structure (SMILES): N[C@@H](Cc1c[nH]c2ccccc12)C(=O)O [tryptophan]
- effect of addition of tryptophan on the MIC of vancomycin (S. aureus ATCC 25923): does not affect the MIC of vancomycin
- effect of addition of tryptophan on the MIC of vancomycin (E. faecalis ATCC 29212): does not affect the MIC of vancomycin
- effect of additive on vancomycin stability in solution [1]: capable of slowing down the degradation of vancomycin in solution
- effect of amino acid on vancomycin stability in solution [1]: capable of slowing down the degradation of vancomycin
- effect of tryptophan concentration on vancomycin stability in solution [1]: improves vancomycin stability in a concentration-dependent fashion
- tryptophan solubility (physchem; pH 6.2): 2.2%
- tryptophan solubility (estimated) (physchem; pH 6.2): ~2.5%
- solubility (physchem; pH 6.2, aqueous buffer, thermodynamic from solid): ~70 mM (≈ 14.3 mg/mL)
- solubility (Solubility in water; without vancomycin, read-out: tryptophan solubility in water): ~14 mg/mL (≈ 68.6 mM)

Structure (SMILES): CC(=O)N[C@@H](Cc1c[nH]c2ccccc12)C(=O)O [N-acetyl-tryptophan]
- effect of additive on vancomycin stability in solution [1]: capable of slowing down the degradation of vancomycin in solution

Structure (SMILES): CN[C@H](CC(C)C)C(=O)N[C@H]1C(=O)N[C@@H](CC(N)=O)C(=O)N[C@H]2C(=O)N[C@H]3C(=O)N[C@H](C(=O)N[C@H](C(=O)O)c4cc(O)cc(O)c4-c4cc3ccc4O)[C@H](O)c3ccc(c(Cl)c3)Oc3cc2cc(c3O[C@@H]2O[C@H](CO)[C@@H](O)[C@H](O)[C@H]2O[C@H]2C[C@](C)(N)[C@H](O)[C@H](C)O2)Oc2ccc(cc2Cl)[C@H]1O [vancomycin hydrochloride]
- solubility of vancomycin hydrochloride in water [2]: > 10 % w/v
